Measured values from paper PMC7419507, “In vitro Cas9-assisted editing of modular polyketide synthase genes to produce desired natural product derivatives” (Nature Communications, 2020).

Test: Stability of the compound during isolation
Format: physicochemical
Conditions: isolation from culture
From the text: Authors' possible answers (A) to the comments (C) raised by Reviewer #2.
This manuscript by Kudo et al. describes the combined application of in vitro CRIPS-Cas9 and Gibson assembly technology to edit type 1 modular PKSs. Authors […]
module deletion/insertion, reductive domains, stereochemistry of beta-hydroxyl group, and double modification (ER and KR) using rapamycin PKS as a model system. Although in vitro CIRPR/Cas9 system for refactoring of biosynthetic gene clusters in Streptomyces has been reported previously (mBio 6(6):e01714-15), this manuscript may be the first report to use CIRPR/Cas9 technology to edit the large modular PKSs.
We thank Reviewer #2 for the positive evaluation of our technology. Since the engineering […]
(C-1) Although the method used in this study seems promising to edit PKS efficiently, authors should present the complete structural data (e.g. 1D and 2D NMR) of all […]
(A-1) We have added NMR data for compounds 10, 11 , 12, 13, 15 and 16, whose yields were high enough allow their analysis by NMR. In addition, we confirmed the quantitative analysis of all compounds (Supplementary Table 3). […]
smaller m/z than that of 5 (Figs. A(d) and (e)). Multiple degradation products were detected (Fig. B) and those peaks were not detectable from crude extract before isolation.
We measured a NMR spectrum of the collected sample (ca 0.8 mg), however, the sample […]

SMILES | Stability during isolation, in words
CO[C@H]1C[C@@H]2CC[C@@H](C)[C@@](O)(O2)C(=O)C(=O)N2CCCC[C@H]2C(=O)O[C@H]([C@H](C)C[C@@H]2CC[C@@H](O)[C@H](OC)C2)CC(=O)[C@H](C)/C=C(\C)[C@@H](O)[C@@H](OC)C(=O)[C@H](C)CC/C=C/C=C/C=C/1C [Compound 5, 23-demethyl rapamycin] | instability
CO[C@@H]1C[C@H](C[C@@H](C)[C@@H]2CC(=O)[C@H](C)/C=C(\C)[C@@H](O)CC(=O)[C@H](C)/C=C(C)/C=C/C=C/C=C(\C)[C@H](O)C[C@@H]3CC[C@@H](C)[C@@](O)(O3)C(=O)C(=O)N3CCCC[C@H]3C(=O)O2)CC[C@H]1O [Compound 19, 27-demethoxy-16-O-demethyl-23,24-didehydro-rapamycin] | so unstable that we could not isolate it
